Results published in PubChem BioAssay AID1259407 (Chemical Carcinogenesis Research Information System (CCRIS), 2018).
Calls of active or inactive are those of the source. No rule for the calls is given here.

System: CCRIS mutagenicity, Ames/micronucleus/aberration tests
Assay: CCRIS mutagenicity studies
[1] = Test System: AMES SALMONELLA TYPHIMURIUM, Strain/Indicator: TA100, Metabolic Activation: NONE, Method: STANDARD PLATE
[2] = Test System: AMES SALMONELLA TYPHIMURIUM, Strain/Indicator: TA98, Metabolic Activation: NONE, Method: STANDARD PLATE
[3] = Test System: AMES SALMONELLA TYPHIMURIUM, Strain/Indicator: TA98, Metabolic Activation: NONE, Method: PREINCUBATION
[4] = Test System: AMES SALMONELLA TYPHIMURIUM, Strain/Indicator: TA100, Metabolic Activation: NONE, Method: PREINCUBATION
[5] = Test System: AMES SALMONELLA TYPHIMURIUM, Strain/Indicator: TA98, Metabolic Activation: RAT, LIVER, S-9, AROCLOR 1254, Method: STANDARD PLATE
[6] = Test System: AMES SALMONELLA TYPHIMURIUM, Strain/Indicator: TA100, Metabolic Activation: RAT, LIVER, S-9, AROCLOR 1254, Method: STANDARD PLATE
[7] = Test System: AMES SALMONELLA TYPHIMURIUM, Strain/Indicator: TA1538, Metabolic Activation: NONE, Method: STANDARD PLATE
[8] = Test System: AMES SALMONELLA TYPHIMURIUM, Strain/Indicator: TA1538, Metabolic Activation: RAT, LIVER, S-9, AROCLOR 1254, Method: STANDARD PLATE

**Q.** How did the mutagenic call [1] turn out when `COc1ccc(CON(OC(C)=O)C(=O)c2ccccc2)cc1` was run?
**A.** active; positive

**Q.** What about the mutagenic call (Test System: AMES SALMONELLA TYPHIMURIUM, Strain/Indicator: TA100, Metabolic Activation: RAT, S-9, AROCLOR, Method: STANDARD PLATE) of the same compound?
**A.** active; positive

**Q.** What does the source list for `CC(C)c1cc(-c2ccccc2)ccc1N`?
**A.** mutagenic call [2]: inactive; negative; mutagenic call (Test System: AMES SALMONELLA TYPHIMURIUM, Strain/Indicator: TA98, Metabolic Activation: RAT LIVER S-9, AROCLOR, Method: STANDARD PLATE): active; positive; mutagenic call [1]: inactive; negative; mutagenic call (Test System: AMES SALMONELLA TYPHIMURIUM, Strain/Indicator: TA100, Metabolic Activation: RAT LIVER S-9, AROCLOR, Method: STANDARD PLATE): active; positive

**Q.** Which mutagenic call [3] does the source give for `COc1cc2oc(-c3ccc(O)cc3)c(O)c(=O)c2cc1OC` here?
**A.** inactive; negative

**Q.** And the mutagenic call (Test System: AMES SALMONELLA TYPHIMURIUM, Strain/Indicator: TA98, Metabolic Activation: RAT LIVER S-9, SODIUM BARBITAL AND BETA-NAPHTHAFLAVONE, Method: PREINCUBATION)?
**A.** inactive; negative

**Q.** And the mutagenic call [4]?
**A.** inactive; negative

**Q.** And the mutagenic call (Test System: AMES SALMONELLA TYPHIMURIUM, Strain/Indicator: TA100, Metabolic Activation: RAT LIVER S-9, SODIUM BARBITAL AND BETA-NAPHTHAFLAVONE, Method: PREINCUBATION)?
**A.** inactive; negative

**Q.** Which mutagenic call (Test System: AMES SALMONELLA TYPHIMURIUM, Strain/Indicator: TA102, Metabolic Activation: NONE, Method: STANDARD PLATE) does the source give for `CC1(C)CC(C(=O)NC(CO)C(O)CO)C(C)(C)N1[O]` (stereo not given) here?
**A.** inactive; negative

**Q.** And the mutagenic call (Test System: AMES SALMONELLA TYPHIMURIUM, Strain/Indicator: TA102, Metabolic Activation: XANTHINE OXIDASE, Method: STANDARD PLATE)?
**A.** inactive; negative

**Q.** And the mutagenic call (Test System: AMES SALMONELLA TYPHIMURIUM, Strain/Indicator: TA104, Metabolic Activation: NONE, Method: STANDARD PLATE)?
**A.** inactive; negative

**Q.** What about the mutagenic call (Test System: AMES SALMONELLA TYPHIMURIUM, Strain/Indicator: TA104, Metabolic Activation: XANTHINE OXIDASE, Method: STANDARD PLATE) of the same compound?
**A.** inactive; negative

**Q.** And the mutagenic call (Test System: CHO, Strain/Indicator: CHO/6-THIOGUANINE, Metabolic Activation: NONE, Method: STANDARD PLATE)?
**A.** inactive; negative

**Q.** What about the mutagenic call (Test System: CHO, Strain/Indicator: CHO/6-THIOGUANINE, Metabolic Activation: RAT, LIVER, S-9, AROCLOR 1254, Method: STANDARD PLATE) of the same compound?
**A.** inactive; negative

**Q.** And the mutagenic call (Test System: CHO, Strain/Indicator: CHO/OUABAIN, Metabolic Activation: NONE, Method: STANDARD PLATE)?
**A.** inactive; negative

**Q.** What about the mutagenic call (Test System: CHO, Strain/Indicator: CHO/OUABAIN, Metabolic Activation: RAT, LIVER, S-9, AROCLOR 1254, Method: STANDARD PLATE) of the same compound?
**A.** inactive; negative

**Q.** What does the source list for `O=[N+]([O-])C1=Cc2cc3cc4ccccc4cc3c3cccc1c23`?
**A.** mutagenic call [2]: active; positive; mutagenic call [5]: active; positive; mutagenic call [1]: inactive; negative; mutagenic call [6]: inactive; negative; mutagenic call (Test System: AMES SALMONELLA TYPHIMURIUM, Strain/Indicator: TA1535, Metabolic Activation: NONE, Method: STANDARD PLATE): inactive; negative; mutagenic call (Test System: AMES SALMONELLA TYPHIMURIUM, Strain/Indicator: TA1535, Metabolic Activation: RAT, LIVER, S-9, AROCLOR 1254, Method: STANDARD PLATE): inactive; negative; mutagenic call (Test System: AMES SALMONELLA TYPHIMURIUM, Strain/Indicator: TA1537, Metabolic Activation: NONE, Method: STANDARD PLATE): active; positive; mutagenic call (Test System: AMES SALMONELLA TYPHIMURIUM, Strain/Indicator: TA1537, Metabolic Activation: RAT, LIVER, S-9, AROCLOR 1254, Method: STANDARD PLATE): active; positive; mutagenic call [7]: active; positive; mutagenic call [8]: inactive; negative

**Q.** `Nc1cc([N+](=O)[O-])ccc1CO` was tested. Which mutagenic call [3] did it give?
**A.** active; positive

**Q.** What about the mutagenic call (Test System: AMES SALMONELLA TYPHIMURIUM, Strain/Indicator: TA98, Metabolic Activation: RAT, LIVER, S-9, PHENOBARBITAL AND 5,6-BENZOFLAVONE, Method: PREINCUBATION) of the same compound?
**A.** active; positive

**Q.** And the mutagenic call [4]?
**A.** active; positive

**Q.** And the mutagenic call (Test System: AMES SALMONELLA TYPHIMURIUM, Strain/Indicator: TA100, Metabolic Activation: RAT, LIVER, S-9, PHENOBARBITAL AND 5,6-BENZOFLAVONE, Method: PREINCUBATION)?
**A.** active; positive

**Q.** `CC(=O)N[C@@H](CS/C(F)=C(\F)C(F)(F)F)C(=O)O` was tested. Which mutagenic call (Test System: AMES SALMONELLA TYPHIMURIUM, Strain/Indicator: TA100, Metabolic Activation: RAT, KIDNEY, S-9, AROCLOR 1254, Method: STANDARD PLATE) did it give?
**A.** inactive; negative

**Q.** With `CCCOc1cc(N=Nc2ccc(N(CCO)CCO)cc2)ccc1N=Nc1c(S(=O)(=O)O)cc2ccc(N)cc2c1O` as the compound, how does the mutagenic call [2] read?
**A.** inactive; negative

**Q.** And the mutagenic call [5]?
**A.** active; positive

**Q.** And the mutagenic call [1]?
**A.** inactive; negative

**Q.** What about the mutagenic call [6] of the same compound?
**A.** inactive; negative

**Q.** And the mutagenic call [7]?
**A.** inactive; negative

**Q.** What about the mutagenic call [8] of the same compound?
**A.** active; positive

**Q.** Which results are given for `CC(=O)Nc1ccc(NC(C)=O)cc1`?
**A.** mutagenic call (Test System: Ames Salmonella typhimurium, Strain/Indicator: TA98, Metabolic Activation: None, Method: Standard Plate): inactive; negative; mutagenic call (Test System: Ames Salmonella typhimurium, Strain/Indicator: TA100, Metabolic Activation: None, Method: Standard Plate): inactive; negative; mutagenic call (Test System: Ames Salmonella typhimurium, Strain/Indicator: TA102, Metabolic Activation: None, Method: Standard Plate): inactive; negative; mutagenic call (Test System: Ames Salmonella typhimurium, Strain/Indicator: TA1535, Metabolic Activation: None, Method: Standard Plate): inactive; negative; mutagenic call (Test System: Ames Salmonella typhimurium, Strain/Indicator: TA1537, Metabolic Activation: None, Method: Standard Plate): inactive; negative

**Q.** For `ClC[C@@]1(C(Cl)Cl)C2[C@@H](Cl)[C@H](Cl)C1(C(Cl)Cl)[C@@H](Cl)[C@@H]2Cl`, which mutagenic call [4] is on record?
**A.** inactive; negative
